# Values quoted from earlier work as cited in patent US8679052B2, “Method for accurately determining concentrations of diffusible materials” (priority 2009, dated 2014).
# System: red blood cells
# Conditions: red blood cells suspended in buffer; in the first 1-2 minutes
smiles,measurement,value
CC(=O)/N=c1/sc(S(N)(=O)=O)nn1C [methazolamide],decrease of buffer concentration (uptake by red blood cells),50%
